Laboratory results from patent US8609708B2 (Human BioMolecular Research Institute, priority 2003, dated 2013).
Read-outs that look alike come from different tables or passages of the source.

Assays:
[1] = test system: male Wistar rats; experiment: Nicotine self-administration in nicotine-addicted rats; type: in vivo, rat
[2] = target: CYP3A4 relative to CYP2A6 (Homo sapiens (Human), UniProt P08684); experiment: in vitro; conditions: human; for selectivity ratio at 30 min: pH 7.5
[3] = target: T1, human CYP2A6 (Homo sapiens (Human), UniProt P11509)
[4] = target: CYP2C9 (Homo sapiens (Human), UniProt P11712); experiment: CYP2C9 Vivid blue substrate O-dealkylation inhibition; type: biochemical
[5] = target: CYP2E1 (Homo sapiens (Human), UniProt P05181); experiment: CYP2E1 Vivid blue substrate O-dealkylation inhibition; type: biochemical
[6] = target: CYP3A4 (Homo sapiens (Human), UniProt P08684); experiment: in vitro
[7] = target: T2, P450 2A6dH (Homo sapiens (Human), UniProt P11509, INS494HHHH)
Protocol: (§1) Subsequently, test compound (in 100% ethanol, 10 μM) was added to both the cuvettes. The maximal ethanol concentration used was 2%. The difference spectra were obtained after the system reached equilibrium (3 min). All spectra were recorded at 25° C.

[8] = Human liver microsome stability assay; conditions: human liver microsomes
[9] = target: CYP2C19 (Homo sapiens (Human), UniProt P33261); experiment: CYP2C19 Vivid blue substrate O-dealkylation inhibition; type: biochemical
[10] = target: CYP2D6 (Homo sapiens (Human), UniProt P10635); experiment: CYP2D6 Vivid blue substrate O-dealkylation inhibition; type: biochemical
[11] = Mouse liver microsome stability assay; conditions: mouse, mouse liver microsomes, pH 7.4
Protocol: The residue was reconstituted in methanol (200 μL), centrifuged at 13,000 rpm for 5 min and the supernatant was analyzed by high-performance liquid chromatography with an Axxi-chrom (straight-phase) silica column (4.6 mm×250 mm, 5 μm) or with a Supelco (reverse-phase) HS F5 pentafluorophenyl column (4.6 mm×250 mm, 5 μm).

[12] = target: CYP2B6 (Homo sapiens (Human), UniProt P20813); experiment: CYP2B6 Vivid blue substrate O-dealkylation inhibition; type: biochemical
[13] = target: Acetylcholine Binding Protein (Lymnaea stagnalis (Great pond snail) (Helix stagnalis), UniProt P58154); parameters: species or system Lymnaca stagnalis
[14] = target: T1, human CYP2A6; experiment: CYP2A6 mediated coumarin 7-hydroxylation inhibition
[15] = target: T3, CYP2A13 (Homo sapiens (Human), UniProt Q16696); experiment: Inhibition of human CYP2A13; conditions: human
[16] = target: mouse CYP2A5 (Mus musculus (Mouse), UniProt P20852); experiment: Inhibition of mouse CYP2A5; type: biochemical; conditions: read-out: IC50 mCYP2A5
[17] = target: T1, human CYP2A6; experiment: biochemical
[18] = target: T3, CYP2A13; experiment: in vitro
[19] = target: Microsomal Human CYP2A6 (Homo sapiens (Human), UniProt P11509); experiment: Microsomal human CYP2A6-mediated nicotine oxidase activity
Protocol: For each determination, cold microsomes (of predetermined CYP2A6 activity) was added to the NADPH-generating system containing 50 mM Tris (pH=7.4) and DETAPAC (to prevent metal-catalyzed autooxidation) and inhibitor. Because rat liver cytosol has little CYP2A6 activity and high levels of aldehyde oxidase, 0.2 mg/incubation was used to quantitatively convert the nicotine iminium ion to cotinine. […] For initial evaluation of a large number of samples, [^3]H-nicotine was used in a TLC/radiometric format. […] Quantification of scrapped bands was by scintillation counting.

[20] = target: Ach binding protein (AchBP) (Lymnaea stagnalis (Great pond snail) (Helix stagnalis), UniProt P58154)
Source text: To examine the degree of interaction with the nicotinic acetylcholine receptor, we examined the binding interaction of the synthetic inhibitors with the Ach binding protein (AchBP) from the fresh water snail (Table 3).

[21] = target: T2, P450 2A6dH; experiment: Difference spectra of test compounds with N-terminal truncated CYP2A6
Protocol: as §1

[22] = target: CYP2C9 relative to CYP2A6 (Homo sapiens (Human), UniProt P11712); experiment: CYP2C9 Vivid blue substrate O-dealkylation inhibition; type: biochemical; conditions: human, recombinant CYP2C9 BACULOSOMES, pH 8, probe Vivid blue substrate (10 μM), O-dealkylation; read-out: 2C9/2A6 selectivity ratio (IC50 CYPX/IC50 CYP2A6)
[23] = target: CYP2E1 relative to CYP2A6 (Homo sapiens (Human), UniProt P05181); experiment: CYP2E1 Vivid blue substrate O-dealkylation inhibition; type: biochemical; conditions: human, recombinant CYP2E1 BACULOSOMES, pH 8, probe Vivid blue substrate (10 μM), O-dealkylation; read-out: 2E1/2A6 selectivity ratio (IC50 CYPX/IC50 CYP2A6)
[24] = target: CYP2C19 relative to CYP2A6 (Homo sapiens (Human), UniProt P33261); experiment: CYP2C19 Vivid blue substrate O-dealkylation inhibition; type: biochemical; conditions: human, recombinant CYP2C19 BACULOSOMES, pH 8, probe Vivid blue substrate (10 μM), O-dealkylation; read-out: 2C19/2A6 selectivity ratio (IC50 CYPX/IC50 CYP2A6)
[25] = target: CYP2D6 relative to CYP2A6 (Homo sapiens (Human), UniProt P10635); experiment: CYP2D6 Vivid blue substrate O-dealkylation inhibition; type: biochemical; conditions: human, recombinant CYP2D6 BACULOSOMES, pH 8, probe Vivid blue substrate (10 μM), O-dealkylation; read-out: 2D6/2A6 selectivity ratio (IC50 CYPX/IC50 CYP2A6)
[26] = target: CYP2B6 relative to CYP2A6 (Homo sapiens (Human), UniProt P20813); experiment: CYP2B6 Vivid blue substrate O-dealkylation inhibition; type: biochemical; conditions: human, recombinant CYP2B6 BACULOSOMES, pH 8, probe Vivid blue substrate (5 μM), O-dealkylation; read-out: 2B6/2A6 selectivity ratio (IC50 CYPX/IC50 CYP2A6)
[27] = Table 4, unit inferred, read-out: 2C9 IC50 ± SD
[28] = Table 4, unit inferred, read-out: 2E1 IC50 ± SD
[29] = Table 4, unit inferred, read-out: 2C19 IC50 ± SD
[30] = Table 4, unit inferred, read-out: 2D6 IC50 ± SD
[31] = Table 4, unit inferred, read-out: 2B6 IC50 ± SD

CYP2C9, sequence (P11712 whole entry): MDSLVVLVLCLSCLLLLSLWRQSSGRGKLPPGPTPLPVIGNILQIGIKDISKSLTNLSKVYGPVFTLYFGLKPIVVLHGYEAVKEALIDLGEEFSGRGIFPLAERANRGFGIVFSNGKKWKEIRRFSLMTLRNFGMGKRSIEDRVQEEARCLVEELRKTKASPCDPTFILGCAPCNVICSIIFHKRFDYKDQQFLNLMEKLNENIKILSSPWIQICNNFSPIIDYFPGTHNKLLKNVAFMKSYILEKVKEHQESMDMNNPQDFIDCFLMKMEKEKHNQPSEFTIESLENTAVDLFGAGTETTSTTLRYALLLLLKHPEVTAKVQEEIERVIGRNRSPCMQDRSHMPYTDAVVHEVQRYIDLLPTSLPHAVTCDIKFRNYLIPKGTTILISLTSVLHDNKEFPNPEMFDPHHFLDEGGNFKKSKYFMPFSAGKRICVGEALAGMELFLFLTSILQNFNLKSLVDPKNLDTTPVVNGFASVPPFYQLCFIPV
CYP2B6, sequence (P20813 whole entry): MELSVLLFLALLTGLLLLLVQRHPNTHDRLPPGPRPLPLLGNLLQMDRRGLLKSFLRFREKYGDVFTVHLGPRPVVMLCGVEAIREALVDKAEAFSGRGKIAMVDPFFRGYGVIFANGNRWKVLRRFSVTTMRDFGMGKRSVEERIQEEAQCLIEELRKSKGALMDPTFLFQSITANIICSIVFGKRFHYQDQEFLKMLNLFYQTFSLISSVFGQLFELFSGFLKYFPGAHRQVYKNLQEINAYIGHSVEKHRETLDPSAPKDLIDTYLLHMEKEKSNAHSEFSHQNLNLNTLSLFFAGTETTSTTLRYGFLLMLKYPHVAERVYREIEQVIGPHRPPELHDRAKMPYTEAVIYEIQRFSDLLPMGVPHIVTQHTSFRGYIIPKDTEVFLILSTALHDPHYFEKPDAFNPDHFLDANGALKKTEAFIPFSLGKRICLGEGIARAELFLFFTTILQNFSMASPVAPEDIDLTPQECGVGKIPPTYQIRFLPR
CYP2C19, sequence (P33261 whole entry): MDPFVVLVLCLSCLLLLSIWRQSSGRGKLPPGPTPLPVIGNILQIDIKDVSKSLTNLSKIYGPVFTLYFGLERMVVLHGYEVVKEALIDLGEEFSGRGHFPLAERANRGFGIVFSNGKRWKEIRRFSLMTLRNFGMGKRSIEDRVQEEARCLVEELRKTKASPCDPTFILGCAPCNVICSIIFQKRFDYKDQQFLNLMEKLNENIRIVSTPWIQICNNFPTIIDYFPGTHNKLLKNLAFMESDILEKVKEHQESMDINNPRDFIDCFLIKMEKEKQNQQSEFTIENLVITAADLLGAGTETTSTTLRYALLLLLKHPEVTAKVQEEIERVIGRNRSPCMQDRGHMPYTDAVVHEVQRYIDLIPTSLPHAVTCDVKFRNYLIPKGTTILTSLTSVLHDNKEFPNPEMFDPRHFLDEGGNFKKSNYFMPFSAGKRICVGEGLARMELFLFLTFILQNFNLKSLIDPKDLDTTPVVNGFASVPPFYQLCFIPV
CYP2D6, sequence (P10635 whole entry): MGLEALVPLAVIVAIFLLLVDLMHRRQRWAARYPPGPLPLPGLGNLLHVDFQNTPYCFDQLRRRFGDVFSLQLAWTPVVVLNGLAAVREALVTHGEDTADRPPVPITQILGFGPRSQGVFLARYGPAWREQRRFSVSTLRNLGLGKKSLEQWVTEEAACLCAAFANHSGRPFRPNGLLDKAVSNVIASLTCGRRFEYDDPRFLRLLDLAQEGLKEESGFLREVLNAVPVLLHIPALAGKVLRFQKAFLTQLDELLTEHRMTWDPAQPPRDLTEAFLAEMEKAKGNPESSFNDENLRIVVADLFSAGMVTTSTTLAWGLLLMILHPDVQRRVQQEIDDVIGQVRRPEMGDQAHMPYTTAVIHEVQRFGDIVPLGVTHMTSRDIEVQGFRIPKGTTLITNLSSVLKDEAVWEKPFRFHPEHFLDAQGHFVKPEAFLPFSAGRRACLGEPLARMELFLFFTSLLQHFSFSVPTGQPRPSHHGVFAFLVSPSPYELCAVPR
CYP2E1, sequence (P05181 whole entry): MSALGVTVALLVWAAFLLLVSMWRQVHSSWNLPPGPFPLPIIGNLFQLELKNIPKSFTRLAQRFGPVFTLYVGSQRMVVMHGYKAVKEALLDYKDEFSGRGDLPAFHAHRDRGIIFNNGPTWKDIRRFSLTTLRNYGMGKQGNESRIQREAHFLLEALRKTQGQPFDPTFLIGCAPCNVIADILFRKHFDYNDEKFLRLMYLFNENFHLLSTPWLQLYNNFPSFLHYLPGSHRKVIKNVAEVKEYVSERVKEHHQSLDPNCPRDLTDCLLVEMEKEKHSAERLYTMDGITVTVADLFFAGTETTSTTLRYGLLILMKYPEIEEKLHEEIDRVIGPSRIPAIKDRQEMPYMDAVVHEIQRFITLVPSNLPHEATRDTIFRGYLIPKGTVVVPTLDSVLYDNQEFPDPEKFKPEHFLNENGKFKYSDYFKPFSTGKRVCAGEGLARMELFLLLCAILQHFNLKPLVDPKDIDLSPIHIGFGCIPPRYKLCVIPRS
T2 sequence (P11509 other isoform, or with tags, fused parts or gaps 1-28 replaced by MAKKTS/ins HHHH behind 494): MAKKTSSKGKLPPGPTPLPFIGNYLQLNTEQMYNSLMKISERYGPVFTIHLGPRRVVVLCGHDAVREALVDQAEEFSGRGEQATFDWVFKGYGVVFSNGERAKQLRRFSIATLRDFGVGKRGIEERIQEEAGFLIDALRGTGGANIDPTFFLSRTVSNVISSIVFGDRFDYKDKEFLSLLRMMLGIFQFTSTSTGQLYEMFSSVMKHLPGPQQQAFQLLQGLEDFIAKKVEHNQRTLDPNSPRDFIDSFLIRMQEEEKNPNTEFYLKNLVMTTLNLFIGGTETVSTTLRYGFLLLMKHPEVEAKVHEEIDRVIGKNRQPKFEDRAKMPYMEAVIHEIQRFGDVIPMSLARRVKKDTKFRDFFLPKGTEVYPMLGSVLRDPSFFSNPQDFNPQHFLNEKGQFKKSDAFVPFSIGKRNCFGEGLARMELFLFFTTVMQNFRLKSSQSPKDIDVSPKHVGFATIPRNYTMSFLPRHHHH
T1 sequence (P11509 whole entry): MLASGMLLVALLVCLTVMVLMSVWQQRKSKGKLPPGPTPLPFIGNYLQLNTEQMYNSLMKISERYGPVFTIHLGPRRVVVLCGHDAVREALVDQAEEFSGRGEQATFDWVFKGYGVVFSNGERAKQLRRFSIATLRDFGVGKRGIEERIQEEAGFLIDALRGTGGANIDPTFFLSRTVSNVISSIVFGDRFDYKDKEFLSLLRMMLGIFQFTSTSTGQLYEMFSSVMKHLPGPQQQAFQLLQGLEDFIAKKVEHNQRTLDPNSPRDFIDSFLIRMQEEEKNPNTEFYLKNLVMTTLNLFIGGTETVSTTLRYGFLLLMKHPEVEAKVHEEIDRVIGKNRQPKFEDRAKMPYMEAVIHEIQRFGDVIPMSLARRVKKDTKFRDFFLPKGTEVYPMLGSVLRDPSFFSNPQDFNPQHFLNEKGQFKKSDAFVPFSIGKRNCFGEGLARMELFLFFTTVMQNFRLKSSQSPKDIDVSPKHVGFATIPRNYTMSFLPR
CYP3A4, sequence (P08684 whole entry): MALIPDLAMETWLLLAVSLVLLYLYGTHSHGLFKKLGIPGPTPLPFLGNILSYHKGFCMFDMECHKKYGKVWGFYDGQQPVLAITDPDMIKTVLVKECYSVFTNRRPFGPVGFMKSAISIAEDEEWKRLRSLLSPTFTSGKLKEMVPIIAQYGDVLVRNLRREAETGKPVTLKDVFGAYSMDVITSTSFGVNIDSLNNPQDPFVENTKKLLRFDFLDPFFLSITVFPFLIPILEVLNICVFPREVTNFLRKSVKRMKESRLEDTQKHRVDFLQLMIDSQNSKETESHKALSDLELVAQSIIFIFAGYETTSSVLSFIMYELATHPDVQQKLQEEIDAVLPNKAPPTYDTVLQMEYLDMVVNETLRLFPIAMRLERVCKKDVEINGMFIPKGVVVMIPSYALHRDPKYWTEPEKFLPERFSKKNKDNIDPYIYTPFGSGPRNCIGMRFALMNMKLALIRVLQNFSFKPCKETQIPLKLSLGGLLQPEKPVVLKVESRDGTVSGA
CYP3A4 relative to CYP2A6, sequence (P08684 whole entry): as above
mouse CYP2A5, sequence (P20852 whole entry): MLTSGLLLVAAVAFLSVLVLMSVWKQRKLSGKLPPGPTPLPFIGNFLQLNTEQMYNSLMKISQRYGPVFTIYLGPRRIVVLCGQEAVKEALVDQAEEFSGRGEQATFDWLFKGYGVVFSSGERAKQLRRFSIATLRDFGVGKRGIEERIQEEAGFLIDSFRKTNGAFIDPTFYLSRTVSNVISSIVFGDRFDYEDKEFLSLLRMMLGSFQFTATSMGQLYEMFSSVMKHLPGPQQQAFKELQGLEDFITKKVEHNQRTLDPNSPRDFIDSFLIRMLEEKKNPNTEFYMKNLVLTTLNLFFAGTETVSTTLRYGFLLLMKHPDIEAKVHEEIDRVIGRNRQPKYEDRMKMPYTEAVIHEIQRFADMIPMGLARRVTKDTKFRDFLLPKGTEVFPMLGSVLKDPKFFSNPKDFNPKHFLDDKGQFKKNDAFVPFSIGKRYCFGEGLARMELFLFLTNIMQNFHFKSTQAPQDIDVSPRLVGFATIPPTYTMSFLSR
T3 sequence (Q16696 whole entry): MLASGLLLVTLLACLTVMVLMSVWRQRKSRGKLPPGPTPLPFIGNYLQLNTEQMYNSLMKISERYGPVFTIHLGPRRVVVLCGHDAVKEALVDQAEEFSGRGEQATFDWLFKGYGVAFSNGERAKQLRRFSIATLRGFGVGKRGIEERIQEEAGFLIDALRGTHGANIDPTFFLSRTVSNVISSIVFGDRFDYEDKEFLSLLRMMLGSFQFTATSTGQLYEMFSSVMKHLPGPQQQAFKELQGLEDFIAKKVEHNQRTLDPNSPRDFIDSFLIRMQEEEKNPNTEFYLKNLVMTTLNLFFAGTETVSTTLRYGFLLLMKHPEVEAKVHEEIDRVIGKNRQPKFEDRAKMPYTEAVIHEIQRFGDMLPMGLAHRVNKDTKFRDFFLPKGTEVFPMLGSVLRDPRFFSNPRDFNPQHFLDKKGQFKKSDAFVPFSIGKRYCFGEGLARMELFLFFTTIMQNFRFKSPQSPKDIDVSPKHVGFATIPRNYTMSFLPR

SMILES: NCc1ccc(-c2cccnc2)o1 [Compound 2]
- in vivo activity against nicotine self-administration (in words) ([1]; nicotine addicted rats): significant in vivo activity
- decrease of nicotine self-administration ([1]; rat, day 50, dihydrochloride salts in sterile saline, compound 2 16 mg/kg, compound 14 15 mg/kg): 70%
- selectivity ratio at 30 min [2]: 174
- CYP2A6 inhibition (in words) [3]: significant inhibition
- IC50 ([3]; human, pH 7.5): 0.268 ± 0.021 µM

SMILES: NCc1ccc(-c2cccnc2)o1 [Compound 2a]
- IC50 [4, 27]: 11.7 ± 2.2 µM
- 2E1/2A6 selectivity ratio (IC50 CYPX/IC50 CYP2A6) [5]: 637
- IC50 [5, 28]: 172 ± 52 µM
- IC50 [6]: 47.1 ± 18.1 µM
- IC50 [3]: 0.27 ± 0.02 µM
- binding type [7]: Type II
- λmax [7]: 428 nm
- λmin [7]: 409 nm
- half-life at 40 μM ([8]; human, pH 7.4): 37 min
- IC50 [9, 29]: 22 ± 1.6 µM
- 2D6/2A6 selectivity ratio (IC50 CYPX/IC50 CYP2A6) [10]: 42
- IC50 [10, 30]: 11.3 ± 2.6 µM
- half-life at 40 μM [11]: 37 min
- 2B6/2A6 selectivity ratio (IC50 CYPX/IC50 CYP2A6) [12]: 707
- IC50 [12, 31]: 191 ± 24 µM

SMILES: NC1CC1c1cccnc1 (stereo not drawn) [2-(pyridin-3-yl)cyclopropanamine]
- % of Control [13]: 8%

SMILES: CNCc1ccc(-c2cccnc2)s1 [TD-IV-073 30]
- IC50 ([14]; read-out: CYP2A6 IC50, coumarin 7-hydroxylation): 1.1 ± 0.13 µM
- inhibition at 1 µM [15]: 17%
- IC50 [16]: 0.9 µM

SMILES: NCc1ccc(-c2cccnc2)s1 [TD-II-039]
- IC50 [16]: 0.5 µM

SMILES: CN1CCCC1c1cccnc1 (stereo not drawn) [Compound 54, Nicotine]
- Ki [17]: 4.4 ± 0.6 µM

SMILES: NCc1ccc(-c2cccnc2)o1 [TD-II-063]
- inhibition at 1 µM [18]: 29%
- IC50 [16]: 0.6 µM

SMILES: BrCC1CCC(c2cccnc2)O1 (stereo not drawn) [Compound 32]
- IC50 [19]: 0.36 ± 0.18 µM

SMILES: CN1CCCC1c1cccnc1 (stereo not drawn) [Compound 54]
- selectivity ratio ([2]; pH 7.5, Selectivity Ratio: IC50 (Inhibition of CYP3A4)/IC50 (Inhibition of CYP2A6)): 5
- IC50 [6]: 142 ± 15.7 µM
- IC50 [17]: 26.3 ± 3.4 µM

SMILES: c1cncc(-c2ccc(CNCc3ccc(-c4cccnc4)s3)s2)c1 [bis((5-(pyridin-3-yl)thiophen-2-yl)methyl)amine]
- % of Control [13]: 10%

SMILES: NCC1CCC(c2cccnc2)O1 (racemic) [Compound 38]
- Selectivity ratio (IC50 CYPX/IC50 CYP2A6) 2C9/2A6 ([4]; human CYP2C9 versus human CYP2A6): 56
- IC50 ([4]; read-out: IC50 ± SD 2C9, insect cell microsomes expressing CYP2C9, 0.2M potassium phosphate buffer, mean of at least 3 determinations ± SD): 208 ± 21 µM
- binding to the AchBP (in words) ([20]; fluorescence quenching): modest binding avidity
- AchBP ([20]; intrinsic fluorescence quenching, 20 nM AchBP): +
- IC50 [19]: 5.21 ± 1.68 µM
- Selectivity ratio (IC50 CYPX/IC50 CYP2A6) 2E1/2A6 ([5]; human CYP2E1 versus human CYP2A6): 21
- IC50 ([5]; read-out: IC50 ± SD 2E1, insect cell microsomes expressing CYP2E1, 0.2M potassium phosphate buffer, mean of at least 3 determinations ± SD): 77.5 ± 14.6 µM
- IC50 ([6]; human, microsomes, pH 7.5): 77.5 ± 14.6 µM
- Selectivity ratio (IC50 CYPX/IC50 CYP2A6) 3A4/2A6 ([6]; human, pH 7.5): 21
- CYP2A6 inhibition (in words) [3]: significantly diminished
- Selectivity ratio (IC50 CYPX/IC50 CYP2A6) 2C19/2A6 ([9]; human CYP2C19 versus human CYP2A6): 62
- IC50 ([9]; read-out: IC50 ± SD 2C19, insect cell microsomes expressing CYP2C19, 0.2M potassium phosphate buffer, mean of at least 3 determinations ± SD): 233 ± 21 µM
- Selectivity ratio (IC50 CYPX/IC50 CYP2A6) 2D6/2A6 ([10]; human CYP2D6 versus human CYP2A6): 53
- IC50 ([10]; read-out: IC50 ± SD 2D6, insect cell microsomes expressing CYP2D6, 0.2M potassium phosphate buffer, mean of at least 3 determinations ± SD): 197 ± 21 µM
- Selectivity ratio (IC50 CYPX/IC50 CYP2A6) 2B6/2A6 ([12]; human CYP2B6 versus human CYP2A6): 69
- IC50 ([12]; read-out: IC50 ± SD 2B6, insect cell microsomes expressing CYP2B6, 0.2M potassium phosphate buffer, mean of at least 3 determinations ± SD): 256 ± 29 µM

SMILES: CN(C)Cc1ccc(-c2cccnc2)s1 [Compound 1c]
- IC50 ([14]; read-out: 2A6 IC50 ± SD, Table 4, unit not given (same data in Table 1 in μM)): 133 ± 21 µM
- λmax ([21]; difference spectrum): 428 nm
- λmin ([21]; difference spectrum): 411 nm
- binding type ([21]; difference spectrum with truncated CYP2A6): Type II
- IC50 [4, 27]: 206 ± 23 µM
- selectivity ratio at 40 min [22]: 1.5
- selectivity ratio at 40 min [23]: > 3
- IC50 [5, 28]: > 400 µM
- selectivity ratio at 30 min [2]: 1.6
- IC50 [6]: 219 ± 23 µM
- HLM t1/2 ([8]; 40 μM test compound): Stable^a
- IC50 [9, 29]: 106 ± 18 µM
- selectivity ratio at 40 min [24]: 0.8
- selectivity ratio at 40 min [25]: 0.2
- IC50 [10, 30]: 28.7 ± 4.1 µM
- half-life at 40 μM [11]: 343 min
- IC50 [12, 31]: > 400 µM
- selectivity ratio at 40 min [26]: > 3

SMILES: Cc1cscc1-c1cccnc1 [TD-I-103]
- IC50 ([3]; human, pH 7.5): 1.85 ± 0.5 µM
- IC50 [16]: 0.75 µM
